Test results as given in patent US20240415114A1, “AGROCHEMICAL FORMULATIONS FOR MITIGATING CRYSTALLIZATION” (SYNGENTA CROP PROTECTION AG, priority 2021, published 2024).

Experiments:
[1] = Solubility of fludioxonil in various vegetable oils; assay type: physicochemical; details: 5C, 25C and 50C, FIG. 1
Procedure: 0.5 g of fludioxonil technical was mixed separately with 5 g of various oils (peanut oil, castor oil, cottonseed oil, olive oil, canola oil, linseed oil, sunflower oil, safflower oil, corn oil, and soybean oil) and incubated at 3 different temperatures (5C, 25C and 50C). The mixtures were then centrifuged and the clear oil supernatant was recovered and analyzed for fludioxonil content.

[2] = Crystallization study of formulation containing fludioxonil (storage, 325 mesh sieve residue); assay type: physicochemical; details: 2 weeks Condition 1 then 2 weeks at 25° C. or 5° C., FIG. 3
Procedure: A formulation containing 0.72% w/w fludioxonil, 0.72% w/w picarbutrazox, 1.43% w/w sedaxane, 4.30% w/w thiabendazole and 1.07% w/w mefenoxam was prepared with castor oil or MK 116 Wax or soybean oil as the flow aid. Castor oil loading was maintained at 10% w/w. MK 116 wax loading was maintained at 5% w/w, whereas soybean oil concentration was varied over a range of 5-12% w/w. The formulation was aliquoted into 50 g samples and placed at temperatures of 50° C., 45° C. 38° C., a freeze thaw cycle going from 50° C. to −10° C. and at 25° C. These formulations were stored for 2 weeks at the indicated conditions (Condition 1), after which they were removed and placed at 25° C. or 5° C. for 2 weeks (Condition 2). After completion of the storage regime, the formulations were diluted with 200 mL of water and poured through a 325 mesh sieve. The residue was collected and analysed for the presence of fludioxonil.

With N#Cc1c[nH]cc1-c1cccc2c1OC(F)(F)O2 [fludioxonil] the “solubility of fludioxonil in oil” value ([1]; all other oils (peanut, cottonseed, olive, canola, linseed, sunflower, safflower, corn, soybean)) was “essentially the same solubilities”, the “solubility of fludioxonil in oil” value ([1]; castor oil) was “significantly improved solubility” and the “loss of fludioxonil (fludioxonil content of sieve residue)” value (from here on “loss of fludioxonil”) ([2]; MK 116 wax 5% w/w as flow aid) was “resulted in loss of fludioxonil”. For the same molecule, the “loss of fludioxonil” value ([2]; castor oil 10% w/w as flow aid) was “did not” and the “loss of fludioxonil” value ([2]; soybean oil 5-12% w/w as flow aid) was “resulted in loss of fludioxonil”.
